# What was measured:
# Format in all cases: in vivo
# [1] = system: o-TRAP^hM4 mice; assay: Pain behaviors evoked by optogenetic activation of nociceptors (o-TRAP^hM4); conditions: noxious transdermal light stimuli
# Excerpt: Different AAV serotypes display unique infection tropisms. […] To express the light-sensitive cation channel channelrhodopsin2 (ChR2) in putative primary afferent nociceptors, we intrathecally injected AAV6-hSyn-ChR2(H134R)-eYFP immediately following the i.c. BLA injections of AAV-DIO-DREADD(Gi)-mCherry in TRAP mice while remaining anesthetized under isoflurane (1-2% maintenance). Specifically, we shaved a small patch of fur on the back, wiped with alcohol and Betadine, and then inserted a 33G beveled needle connected to a WPI Nanofil syringe between the L5/L6 vertebrae and through the dura (confirmation by presence of reflexive tail flick). We slowly administered the virus was over 20 s. We retuned mice to their home cage for 4-6 weeks before behavioral verification of ChR2 expression. […] As we sought expression in lumbar DRGs for the purposes of our behavioral experiments that involve sensory testing on the hind limbs, we performed a behavioral screening of each mouse for transdermal light-responsivity when light was applied to the hindpaw. We placed mice inside individual red plastic cylinders (10.16-cm D) on a thin glass surface. […] We measured whether an immediate nociceptive hindpaw reflex and/or pain affective-motivational behaviors (described below) occurred in response to the light indicated ChR2 expression in nociceptors. […]
# [2] = system: noci-TRAP^hM4 mice; assay: Thermal gradient track adaptive avoidance; conditions: versus saline
# Protocol: To evaluate affective-motivational responses evoked by thermal stimulation (81), we applied either a single, unilateral 50-μL drop of water (5, 30, or 55° C.) or acetone (evaporative cooling) to the left hindpaw, and the duration of attending behavior was collected for up to 60 s after the stimulation. Only one drop stimulation was applied on a given testing session. To evaluate adaptive thermal avoidance and temperature preference, we placed mice in the center of a linear Thermal Gradient Track (121.92-cm L×8.25-cm W metal alloy floor; 15.24-cm H black plastic walls), with the floor featuring a temperature gradient along the long axis. Mice freely explored the track for 60 min. To create the temperature gradient, we placed either heating or cooling plates (Bioseb) under the outermost 16.51 cm of the metal floor, with one plate set to 50.0° C. and the other set to 0.0° C., creating an actual floor gradient of 48° C.→5° C., respectively. The track was subdivided into 25 temperature zones (4.8-cm D per zone), and we assessed the temperature at the center of each zone by a K-probe thermocouple. […] A video camera placed above the track recorded the position of the mouse within the temperature zones, and videos were later analyzed using a video-tracking software (Etho-vision, Noldus) for duration of zone occupancy, zone visits, distance, velocity, and acceleration.
# [3] = system: control neuropathic mice; assay: Pain behaviors in control neuropathic mice not expressing hM4-mCherry in the BLA; conditions: absence of hM4 expression, CNO 10 mg/kg, morphine as positive control
# Excerpt: To induce a chronic pain state, we used a modified version of the Spared Nerve Injury (SNI) model of neuropathic pain, as previously described (70). This model entails surgical section of two of the sciatic nerve branches (common peroneal and tibial branches) while sparing the third (sural branch). […] To perform this peripheral nerve injury procedure, anesthesia was induced and maintained throughout surgery with isoflurane (4% induction, 1.5% maintenance in oxygen). The left hind leg was shaved and wiped clean with alcohol and betadine. We made a 1-cm incision in the skin of the mid-dorsal thigh, approximately where the sciatic nerve trifurcates. The biceps femoris and semimembranosus muscles were gently separated from one another with blunt scissors, thereby creating a <1-cm opening between the muscle groups to expose the common peroneal, tibial, and sural branches of the sciatic nerve. Next, −2 mm of both the common peroneal and tibial nerves were transected and removed, without suturing and with care not to distend the sural nerve. The leg muscles are left uncultured and the skin was closed with tissue adhesive (3M Vetbond), followed by a Betadine application. During recovery from surgery, mice were placed under a heat lamp until awake and achieved normal balanced movement. Mice were then returned to their home cage and closely monitored over the following three days for well-being.
# To evaluate mechanical reflexive sensitivity, we used a logarithmically increasing set of 8 von Frey filaments (Stoelting), ranging in gram force from 0.07- to 6.0-g (93). These filaments were applied perpendicular to the plantar hindpaw with sufficient force to cause a slight bending of the filament. […] Using the Up-Down statistical method, the 50% withdrawal mechanical threshold scores were calculated for each mouse and then averaged across the experimental groups. The response frequency was calculated as the number of positive responses out of 10 stimulations, delivered at 30-s intervals.
# To evaluate affective-motivational responses evoked by thermal stimulation (81), we applied either a single, unilateral 50-μL drop of water (5, 30, or 55° C.) or acetone (evaporative cooling) to the left hindpaw, and the duration of attending behavior was collected for up to 60 s after the stimulation. […] The track was subdivided into 25 temperature zones (4.8-cm D per zone), and we assessed the temperature at the center of each zone by a K-probe thermocouple. […] A video camera placed above the track recorded the position of the mouse within the temperature zones, and videos were later analyzed using a video-tracking software (Etho-vision, Noldus) for duration of zone occupancy, zone visits, distance, velocity, and acceleration.
# [4] = system: neuropathic TRAP^hM4 mice; assay: Two-chamber thermal escape-avoidance (cold place aversion) assay; conditions: floor of one chamber cooled from 30° to 10° C.
# Protocol: To evaluate neuropathic adaptive cool/cold avoidance behavior, mice with SNI freely explored a two-temperature choice chamber. The chamber was constructed from adjoining two thermal plates (Bioseb): one reference plate set at 30° C., and a test plate with the temperature adjusted to either 30, 25, 20, 15, or 10° C. for independent trials. The test plate temperature order was randomized for each trial within the day. The chamber (white opaque plastic with no distinguishing features and no divider, 30.48×15.24×15.24 cm) was fitted onto the conjoined plates. At Day 56 post SNI and at 30-min post CNO injection, we placed mice on the reference plate facing the back wall. Mice then freely explored the chamber for 5 min, while an overhead camera recorded the chamber position and locomotion. After each trial, the mouse was returned to the holding cylinder, while the test plate temperature was rapidly cooled or heated to the next randomly assigned temperature trial. This procedure was repeated until all temperature trials were collected (6 temperature trials total). Video files for each trial were later analyzed using automated tracking software (Ethovision, Noldus) for path tracking, time spent on the test plate, and number of entries onto the test plate.
structure (smiles),measurement,setting,value
"C[N+]1([O-])CCN(C2=Nc3cc(Cl)ccc3Nc3ccccc32)CC1 [CNO, clozapine-N-oxide]",attending and escape behaviors,[1],reduces
same,visits to the noxious zones,[2]; polar ends noxious cold (5 to 17° C.) and hot (42 to 8° C.),more frequently
same,occupancy of the noxious zones,[2]; polar ends noxious cold (5 to 17° C.) and hot (42 to 48° C.),prolonged periods
same,affective-motivational behaviors,[3]; acetone drop,Lack of effect
same,reflex behaviors,[3]; von Frey filaments,Lack of effect
same,preference between cold and neutral temperature chambers,[4],near-total indifference

# — US20210220489A1, “AMYGDALAR NEURAL ENSEMBLE THAT ENCODES THE UNPL[…] PAIN” (The Board of Trustees of the Leland Stanford Junior …, priority 2020, published 2021)
